Laboratory results from US6355799B1, “Substituted benzene compounds, process for their preparation, and herbicidal and defoliant compositions containing them” (ISK Americas Incorporated, priority 1997, dated 2002).

Legend:
Type in all cases: in vivo
[1] = system: ivyleaf morningglory (Ipomoea hederacea, IPOHE); assay: Post-emerge test, greenhouse herbicide activity screening; conditions: post-emerge, 14 days after application, rating scale 0-100
Outline: (§1)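 Compounds in acetone were track-sprayed at 15–1000 g ai/ha: pre-emergence onto soil sown the previous day, then top-watered to incorporate and later bottom-watered; post-emergence onto 2–3 leaf plants with 0.25% v/v surfactant, bottom-watered only. Ratings on a 0–100 phytotoxicity scale were taken at day 14.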

[2] = system: sicklepod (Cassia obtusifolia, CASOB); assay: as above; conditions: post-emerge, 14 days after application, rating scale 0-100
Outline: as §1

[3] = system: johnsongrass (Sorghum halepense, SORHA); assay: as above; conditions: post-emerge, 14 days after application, rating scale 0-100
Outline: as §1

[4] = system: barnyardgrass (Echinochloa crus-galli, ECHCG); assay: as above; conditions: post-emerge, 14 days after application, rating scale 0-100
Outline: as §1

[5] = system: common ragweed (Ambrosia artemisizfolia L., AMBEL); assay: as above; conditions: post-emerge, 14 days after application, rating scale 0-100
Outline: as §1

[6] = system: lambsquarters (Chenopodium album, CHEAL); assay: as above; conditions: post-emerge, 14 days after application, rating scale 0-100
Outline: as §1

[7] = system: velvetleaf (Abutilon theophrasti, ABUTH); assay: as above; conditions: post-emerge, 14 days after application, rating scale 0-100
Outline: as §1

[8] = system: large crabgrass (Digitaria sanguinalis, DIGSA); assay: as above; conditions: post-emerge, 14 days after application, rating scale 0-100
Outline: as §1

[9] = system: green foxtail (Setaria viridis, SETVI); assay: as above; conditions: post-emerge, 14 days after application, rating scale 0-100
Outline: as §1

[10] = system: redroot pigweed (Amaranthus retroflexus, AMARE); assay: as above; conditions: post-emerge, 14 days after application, rating scale 0-100
Outline: as §1

[11] = system: ivyleaf morningglory (Ipomoea hederacea, IPOHE); assay: Pre-emerge test, greenhouse herbicide activity screening; conditions: rated 14 days after application, 0 = no damage, 100 = complete death
Outline: (§2)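 Applied at 15–1000 g ai/ha from acetone in 187 l/ha spray volume. Post-emergence applications included 0.25% v/v non-ionic surfactant and reached plants sown 8–21 days before. Pre-emergence applications were incorporated by surface watering. Efficacy or crop damage was rated on a 0–100 scale after 14 days.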

[12] = system: sicklepod (Cassia obtusifolia, CASOB); assay: as above; conditions: rated 14 days after application, 0 = no damage, 100 = complete death
Outline: as §2

[13] = system: johnsongrass (Sorghum halepense, SORHA); assay: as above; conditions: rated 14 days after application, 0 = no damage, 100 = complete death
Outline: as §2

[14] = system: barnyardgrass (Echinochloa crus-galli, ECHCG); assay: as above; conditions: rated 14 days after application, 0 = no damage, 100 = complete death
Outline: as §2

[15] = system: common ragweed (Ambrosia artemisizfolia L., AMBEL); assay: as above; conditions: rated 14 days after application, 0 = no damage, 100 = complete death
Outline: as §2

[16] = system: lambsquarters (Chenopodium album, CHEAL); assay: as above; conditions: rated 14 days after application, 0 = no damage, 100 = complete death
Outline: as §2

[17] = system: velvetleaf (Abutilon theophrasti, ABUTH); assay: as above; conditions: rated 14 days after application, 0 = no damage, 100 = complete death
Outline: as §2

[18] = system: large crabgrass (Digitaria sanguinalis, DIGSA); assay: as above; conditions: rated 14 days after application, 0 = no damage, 100 = complete death
Outline: as §2

[19] = system: green foxtail (Setaria viridis, SETVI); assay: as above; conditions: rated 14 days after application, 0 = no damage, 100 = complete death
Outline: as §2

[20] = system: redroot pigweed (Amaranthus retroflexus, AMARE); assay: as above; conditions: rated 14 days after application, 0 = no damage, 100 = complete death
Outline: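 Sandy loam pots; pre-emerge: sown 1 d pre-spray, surface-watered after, then bottom-watered. Post-emerge: sown 8–21 d before, 2–3 leaf stage, + 0.25% v/v NIS, bottom-watered. Acetone, 187 l/ha track spray, 15–1000 g ai/ha. 0–100 injury score, day 14.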

[21] = system: field corn (Zea mays L., var. Dekalb 535, CORN); assay: Pre-emerge test, crop safety; conditions: rated 14 days after application, 0 = no damage, 100 = complete death
Outline: (§3)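 Compounds in acetone were track-sprayed at 187 l/ha, 15–1000 g ai/ha, onto sandy loam pots. Pre-emerge seeds were sown one day before spraying, with surface watering afterwards. Post-emerge plants were at the 2–3 leaf stage and sprayed with 0.25% v/v non-ionic surfactant. Injury was rated 0–100 at 14 days.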

[22] = system: upland rice (Oryza sp., var. Tebonnet, RICE); assay: Pre-emerge test, crop safety; conditions: rated 14 days after application, 0 = no damage, 100 = complete death
Outline: as §3

[23] = system: field corn (Zea mays L., var. Dekalb 535, CORN); assay: Post-emerge test, crop safety; conditions: post-emerge, 14 days after application, rating scale 0-100
Outline: as §2

[24] = system: upland rice (Oryza sp., var. Tebonnet, RICE); assay: Post-emerge test, crop safety; conditions: post-emerge, 14 days after application, rating scale 0-100
Outline: as §2

SMILES: COc1c(Cl)cc(F)c(-n2c(=O)cc(C(F)(F)F)n(C)c2=O)c1NC(=O)c1cccc(Cl)c1 [2-54]
- phytotoxicity rating IPOHE ([1]; 63 g ai/ha): 100
- phytotoxicity rating IPOHE ([1]; 250 g ai/ha): 100
- phytotoxicity rating CASOB ([2]; 63 g ai/ha): 90
- phytotoxicity rating CASOB ([2]; 250 g ai/ha): 100
- phytotoxicity rating SORHA ([3]; 63 g ai/ha): 50
- phytotoxicity rating SORHA ([3]; 250 g ai/ha): 80
- phytotoxicity rating ECHCG ([4]; 63 g ai/ha): 20
- phytotoxicity rating ECHCG ([4]; 250 g ai/ha): 90
- phytotoxicity rating AMBEL ([5]; 63 g ai/ha): 90
- phytotoxicity rating AMBEL ([5]; 250 g ai/ha): 100
- phytotoxicity rating CHEAL ([6]; 63 g ai/ha): 100
- phytotoxicity rating CHEAL ([6]; 250 g ai/ha): 100
- phytotoxicity rating ABUTH ([7]; 63 g ai/ha): 100
- phytotoxicity rating ABUTH ([7]; 250 g ai/ha): 100
- phytotoxicity rating DIGSA ([8]; 63 g ai/ha): 10
- phytotoxicity rating DIGSA ([8]; 250 g ai/ha): 20
- phytotoxicity rating SETVI ([9]; 63 g ai/ha): 10
- phytotoxicity rating SETVI ([9]; 250 g ai/ha): 50
- phytotoxicity rating AMARE ([10]; 63 g ai/ha): 100
- phytotoxicity rating AMARE ([10]; 250 g ai/ha): 100
- Pre-emerge Herbicidal Activity, phytotoxicity rating (0-100), IPOHE ([11]; 63 g ai/ha): 85
- Pre-emerge Herbicidal Activity, phytotoxicity rating (0-100), IPOHE ([11]; 250 g ai/ha): 100
- Pre-emerge Herbicidal Activity, phytotoxicity rating (0-100), CASOB ([12]; 63 g ai/ha): 100
- Pre-emerge Herbicidal Activity, phytotoxicity rating (0-100), CASOB ([12]; 250 g ai/ha): 100
- Pre-emerge Herbicidal Activity, phytotoxicity rating (0-100), SORHA ([13]; 63 g ai/ha): 90
- Pre-emerge Herbicidal Activity, phytotoxicity rating (0-100), SORHA ([13]; 250 g ai/ha): 100
- Pre-emerge Herbicidal Activity, phytotoxicity rating (0-100), ECHCG ([14]; 63 g ai/ha): 90
- Pre-emerge Herbicidal Activity, phytotoxicity rating (0-100), ECHCG ([14]; 250 g ai/ha): 100
- Pre-emerge Herbicidal Activity, phytotoxicity rating (0-100), AMBEL ([15]; 63 g ai/ha): 100
- Pre-emerge Herbicidal Activity, phytotoxicity rating (0-100), AMBEL ([15]; 250 g ai/ha): 100
- Pre-emerge Herbicidal Activity, phytotoxicity rating (0-100), CHEAL ([16]; 63 g ai/ha): 100
- Pre-emerge Herbicidal Activity, phytotoxicity rating (0-100), CHEAL ([16]; 250 g ai/ha): 100
- Pre-emerge Herbicidal Activity, phytotoxicity rating (0-100), ABUTH ([17]; 63 g ai/ha): 100
- Pre-emerge Herbicidal Activity, phytotoxicity rating (0-100), ABUTH ([17]; 250 g ai/ha): 100
- Pre-emerge Herbicidal Activity, phytotoxicity rating (0-100), DIGSA ([18]; 63 g ai/ha): 100
- Pre-emerge Herbicidal Activity, phytotoxicity rating (0-100), DIGSA ([18]; 250 g ai/ha): 100
- Pre-emerge Herbicidal Activity, phytotoxicity rating (0-100), SETVI ([19]; 63 g ai/ha): 100
- Pre-emerge Herbicidal Activity, phytotoxicity rating (0-100), SETVI ([19]; 250 g ai/ha): 100
- Pre-emerge Herbicidal Activity, phytotoxicity rating (0-100), AMARE ([20]; 63 g ai/ha): 100
- Pre-emerge Herbicidal Activity, phytotoxicity rating (0-100), AMARE ([20]; 250 g ai/ha): 100
- Pre-emerge phytotoxicity rating (0-100), crop damage, CORN ([21]; 63 g ai/ha): 90
- Pre-emerge phytotoxicity rating (0-100), crop damage, CORN ([21]; 250 g ai/ha): 98
- Pre-emerge phytotoxicity rating (0-100), crop damage, RICE ([22]; 63 g ai/ha): 70
- Pre-emerge phytotoxicity rating (0-100), crop damage, RICE ([22]; 250 g ai/ha): 90
- phytotoxicity rating CORN ([23]; 63 g ai/ha): 80
- phytotoxicity rating CORN ([23]; 250 g ai/ha): 80
- phytotoxicity rating RICE ([24]; 63 g ai/ha): 90
- phytotoxicity rating RICE ([24]; 250 g ai/ha): 95
